Tests used:
Assay type in all cases: in vivo
[1] = test system: Stellaria media (STEME); assay: A. Herbicidal pre-emergence efficacy, STEME
Description: (§1) Seeds of mono- and dicotyledonous weed plants were placed in plastic pots in sandy loam soil (doubly sown with one species each of mono- or dicotyledonous weed plants per pot) and covered with soil. The compounds of the invention, formulated in the form of wettable powders (WP) or as emulsion concentrates (EC), were then applied onto the surface of the covering soil as aqueous suspension or emulsion with addition of 0.5% additive at a water application rate of 600 liters per hectare (converted). After the treatment, the pots were placed in a greenhouse and kept under good growth conditions for the test plants. After about 3 weeks, the efficacy of the preparations was scored visually in comparison with untreated controls as percentages.
(§2) For example, • 100% efficacy=plants have died, • 0% efficacy=like untreated control plants.
(§3) Tables A1a to A12c below show the effects of selected compounds of the general formula (I) according to table 1 on various harmful plants at an application rate corresponding to 1280 g/ha or less, which were obtained by the experimental procedure mentioned above.

[2] = test system: Setaria viridis (SETVI); assay: A. Herbicidal pre-emergence efficacy, SETVI
Description: as §1, §2, §3

[3] = test system: Veronica persica (VERPE); assay: B. Herbicidal post-emergence efficacy, VERPE
Method: (§4) Seeds of mono- and dicotyledonous weed plants were placed in plastic pots in sandy loam soil (doubly sown with in each case one species of mono- or dicotyledonous weed plants per pot), covered with soil and cultivated in a greenhouse under controlled growth conditions. 2 to 3 weeks after sowing, the test plants were treated at the one-leaf stage. The compounds of the invention, formulated in the form of wettable powders (WP) or as emulsion concentrates (EC), were applied onto the green parts of the plants as aqueous suspension or emulsion with addition of 0.5% additive at a water application rate of 600 liters per hectare (converted). After the test plants had been kept in the greenhouse under optimum growth conditions for about 3 weeks, the activity of the preparations was rated visually in comparison to untreated controls.
(§5) For example, • 100% efficacy=plants have died, • 0% efficacy=like untreated control plants
(§6) Tables B1a to B12c below show the effects of selected inventive compounds of the general formula (I) according to table 1 on various harmful plants at an application rate corresponding to 1280 g/ha or less, which were obtained by the experimental procedure mentioned above.

[4] = test system: Echinochloa crus-galli (ECHCG); assay: A. Herbicidal pre-emergence efficacy, ECHCG; settings: 1280 g/ha; scored visually after about 3 weeks vs untreated controls
Description: as §1, §2, §3

[5] = test system: Amaranthus retroflexus (AMARE); assay: A. Herbicidal pre-emergence efficacy, AMARE
Description: as §1, §2, §3

[6] = test system: Lolium rigidum (LOLRI); assay: A. Herbicidal pre-emergence efficacy, LOLRI; settings: dosage 1280 g/ha
Description: as §1, §2, §3

[7] = test system: Poa annua (POAAN); assay: A. Herbicidal pre-emergence efficacy, POAAN
Description: as §1, §2, §3

[8] = test system: Abutilon theophrasti (ABUTH); assay: A. Herbicidal pre-emergence efficacy, ABUTH; settings: 1280 g/ha; scored visually after about 3 weeks vs untreated controls
Description: as §1, §2, §3

[9] = test system: Setaria viridis (SETVI); assay: B. Herbicidal post-emergence efficacy, SETVI; settings: 1280 g/ha
Method: as §4, §5, §6

[10] = test system: Abutilon theophrasti (ABUTH); assay: B. Herbicidal post-emergence efficacy, ABUTH; settings: rated visually after about 3 weeks
Method: as §4, §5, §6

[11] = test system: Veronica persica (VERPE); assay: A. Herbicidal pre-emergence efficacy, VERPE
Description: as §1, §2, §3

[12] = test system: Digitaria sanguinalis (DIGSA); assay: B. Herbicidal post-emergence efficacy, DIGSA; settings: rated visually after about 3 weeks
Method: as §4, §5, §6

[13] = test system: Stellaria media (STEME); assay: B. Herbicidal post-emergence efficacy, STEME
Method: as §4, §5, §6

[14] = test system: Matricaria inodora (MATIN); assay: A. Herbicidal pre-emergence efficacy, MATIN
Description: as §1, §2, §3

[15] = test system: Digitaria sanguinalis (DIGSA); assay: A. Herbicidal pre-emergence efficacy, DIGSA; settings: scored visually after about 3 weeks vs untreated controls
Description: as §1, §2, §3

[16] = test system: Kochia scoparia (KCHSC); assay: A. Herbicidal pre-emergence efficacy, KCHSC; settings: pre-emergence
Description: as §1, §2, §3

[17] = test system: Amaranthus retroflexus (AMARE); assay: B. Herbicidal post-emergence efficacy, AMARE
Method: as §4, §5, §6

[18] = test system: Kochia scoparia (KCHSC); assay: B. Herbicidal post-emergence efficacy, KCHSC; settings: for Post-emergence efficacy against KCHSC in %: 320 g/ha, rated visually after about 3 weeks; for Post-emergence efficacy against KCHSC: 1280 g/ha
Method: as §4, §5, §6

[19] = test system: Poa annua (POAAN); assay: B. Herbicidal post-emergence efficacy, POAAN; settings: 1280 g/ha
Method: as §4, §5, §6

[20] = test system: Echinochloa crus-galli (ECHCG); assay: B. Herbicidal post-emergence efficacy, ECHCG; settings: 1280 g/ha, rated visually after about 3 weeks
Method: as §4, §5, §6

| SMILES | Pre-emergence efficacy against STEME ([1]; dosage 320 g/ha) | Pre-emergence efficacy against STEME ([1]; dosage 1280 g/ha) | Pre-emergence efficacy against SETVI ([2]; dosage 320 g/ha) | Pre-emergence efficacy against SETVI ([2]; dosage 1280 g/ha) | Post-emergence efficacy against VERPE ([3]; 80 g/ha) | Post-emergence efficacy against VERPE ([3]; 320 g/ha) | Post-emergence efficacy against VERPE ([3]; 1280 g/ha) | Pre-emergence efficacy against ECHCG [4] | Pre-emergence efficacy against AMARE in % ([5]; 80 g/ha) | Pre-emergence efficacy against AMARE in % ([5]; 320 g/ha) | Pre-emergence efficacy against AMARE in % ([5]; 1280 g/ha) | Pre-emergence efficacy against POAAN ([7]; dosage 320 g/ha) | Pre-emergence efficacy against POAAN ([7]; dosage 1280 g/ha) | Pre-emergence efficacy against ABUTH [8] | Post-emergence efficacy against SETVI [9] | Post-emergence efficacy against ABUTH in % ([10]; 320 g/ha) | Post-emergence efficacy against ABUTH in % ([10]; 1280 g/ha) | Pre-emergence efficacy against VERPE in % ([11]; 320 g/ha) | Pre-emergence efficacy against VERPE in % ([11]; 1280 g/ha) | Post-emergence efficacy against DIGSA in % ([12]; 1280 g/ha) | other results |
| --- | --- | --- | --- | --- | --- | --- | --- | --- | --- | --- | --- | --- | --- | --- | --- | --- | --- | --- | --- | --- | --- |
| N#Cc1cc(Cl)cnc1Oc1ccccc1OS(=O)(=O)CCCCl [Example I-59] | 100% | 100% | 100% | 100% | 90% | 90% | 90% | 100% | 100% | 100% | 100% | 100% | 100% | 90% | 90% | 90% | 90% | 90% | 100% | 90% | Pre-emergence efficacy against STEME ([1]; dosage 80 g/ha): 90%; Pre-emergence efficacy against LOLRI [6]: 90%; Post-emergence efficacy against DIGSA in % ([12]; 320 g/ha): 90%; Post-emergence efficacy against STEME ([13]; 320 g/ha): 90%; Post-emergence efficacy against STEME ([13]; 1280 g/ha): 90%; Pre-emergence efficacy against MATIN ([14]; 320 g/ha, scored visually after about 3 weeks vs untreated controls): 90%; Pre-emergence efficacy against MATIN ([14]; pre-emergence, dosage 1280 g/ha): 100%; Pre-emergence efficacy against DIGSA ([15]; 320 g/ha): 100%; Pre-emergence efficacy against DIGSA ([15]; 1280 g/ha): 100%; Pre-emergence efficacy against KCHSC ([16]; dosage 320 g/ha): 100%; Pre-emergence efficacy against KCHSC ([16]; dosage 1280 g/ha): 100%; Post-emergence efficacy against AMARE ([17]; 80 g/ha): 90%; Post-emergence efficacy against AMARE ([17]; 320 g/ha): 90%; Post-emergence efficacy against AMARE ([17]; 1280 g/ha): 90%; Post-emergence efficacy against KCHSC in % [18]: 90%; Post-emergence efficacy against KCHSC [18]: 90%; Post-emergence efficacy against POAAN [19]: 90% |
| N#Cc1cccc(Oc2ncc(Cl)cn2)c1OS(=O)(=O)CCCCl [Example I-80] | 100% | 100% | 90% | 100% | 90% | 90% | 100% | 90% | 90% | 90% | 100% | 90% | 90% | 90% | 90% | 90% | 100% | 90% | 100% | 90% | Post-emergence efficacy against ECHCG in % [20]: 100%; Post-emergence efficacy against ABUTH in % ([10]; 80 g/ha): 90%; Post-emergence efficacy against STEME ([13]; 80 g/ha): 90%; Post-emergence efficacy against STEME ([13]; 320 g/ha): 100%; Post-emergence efficacy against STEME ([13]; 1280 g/ha): 100%; Pre-emergence efficacy against DIGSA ([15]; 320 g/ha): 90%; Pre-emergence efficacy against DIGSA ([15]; 1280 g/ha): 100%; Pre-emergence efficacy against KCHSC ([16]; dosage 320 g/ha): 90%; Pre-emergence efficacy against KCHSC ([16]; dosage 1280 g/ha): 100%; Post-emergence efficacy against AMARE ([17]; 80 g/ha): 100%; Post-emergence efficacy against AMARE ([17]; 320 g/ha): 100%; Post-emergence efficacy against AMARE ([17]; 1280 g/ha): 100%; Post-emergence efficacy against KCHSC in % [18]: 90%; Post-emergence efficacy against KCHSC [18]: 90%; Post-emergence efficacy against POAAN [19]: 90% |
